Measured values from patent US7820697B2, “Compositions and method for reducing TNFα levels” (Celgene Corporation, priority 1998, dated 2010).

| Structure (SMILES) | melting point [°C] |
| --- | --- |
| CCc1cccc2c1C(=O)N(C1CCC(=O)NC1=O)C2=O (stereo not drawn) [Example 6, 2-(2,6-Dioxo(3-piperidyl))-4-ethylisoindoline-1,3-dione] | 235 to 236.5 |
| CN(C)c1cccc2c1C(=O)N(C1CCC(=O)NC1=O)C2=O (stereo not drawn) [Example 8, 4-Dimethylamino-2-(2,6-dioxo(3-piperidyl))isoindoline-1,3-dione] | 214.5 to 216.5 |
| Cc1cccc2c1C(=O)N(C1(C)CCC(=O)NC1=O)C2=O (stereo not drawn) [Example 10, 4-Methyl-2-(2,6-dioxo-3-methyl-(3-piperidyl))isoindoline-1,3-dione] | 248 to 250 |
